How the values were obtained:
human iPSCs = assay: Cell cycle analysis of human iPSCs (flow cytometry); type: cell-based; conditions: 24 h, 30 nM (positive control)
Procedure: (§1) For the analysis of the cell cycle, monkey stem cells were detached with Accutase (Stem Cell Technologies) and plated at 15000 cells/cm2 in 6 well plates coated with Matrigel (BD Biosciences) in MT medium supplemented with 10 ng/ml ActivinA, 15 ng/ml FGF2, and 10 μM Rock inhibitor. Cells were expanded for 1 day and then synchronized by starvation for 7 h in MT medium without supplements FGF2 and ActivinA. Before flow cytometry, cells were incubated for 24 h with fresh MT medium containing supplements FGF2 and ActivinA and test items at 80 nM, 400 nM, and 2000 nM or 30 nM rapamycin as positive control to arrest cells in G1 phase. Human stem cells were detached with Accutase (Stem Cell Technologies) and plated at 40000 cells/cm2 in 6 well plates coated with Matrigel (BD Biosciences) in mTeSR1 supplemented with 10 μM Rock Inhibitor Y-27632 (Sigma-Aldrich). Cells were expanded for 3 days with daily medium change. Since human iPSCs lose their properties during starvation by growth factor withdrawal, stem cells were synchronized with 200 ng/ml Nocodazole (Sigma-Aldrich) for 5 h and washed subsequently 2 times with mTesR1 Medium. Before flow cytometry, cells were incubated for 24 h with fresh TesR1 medium containing test items at 80 nM, 400 nM, and 2000 nM or 30 nM rapamycin as positive control to arrest cells in G1 phase.
(§2) For cell cycle analysis, human iPSCs were washed with PBS, detached with Accutase (Stem Cell Technologies) and collected by centrifugation. Cells were stained for 1 h at 37° C. with 600 ul of 7 AAD/Saponin/RNAse mix ([…] 7 AAD (#559925, BD), 50 μg/ml RNase, and 0.03% Saponin dissolved in FACS buffer (PBS, 5% FBS, 10 mM Hepes)). Cynomolgus monkey iPSCs were washed with PBS, detached with Accutase (Stem Cell Technologies) and collected by centrifugation. Cells were stained for 30 min at 37° C. in 300 ul standard MT medium (with FGF2 and ActivinA) containing 1 ul Vybrant Dye Cycle Violet Stain (#V35003, 1000× stock, Invitrogen) per ml medium. Additionally 2 ul 7 AAD (50 μg/ml 7 AAD) were added without permeabilization to label dead cells; cells were incubated for 10 min at 37° C. Flow cytometry analysis was performed using a Canto II cytometer (BD Biosciences) and data were analysed with the FlowJo software.

Cynomolgus monkey iPSCs = assay: Cell cycle analysis of Cynomolgus monkey iPSCs (flow cytometry); type: cell-based; conditions: Cynomolgus monkey iPSCs, 24 h, 30 nM (positive control)
Procedure: as §1, §2

## CO[C@H]1C[C@@H]2CC[C@@H](C)[C@@](O)(O2)C(=O)C(=O)N2CCCC[C@H]2C(=O)O[C@H]([C@H](C)C[C@@H]2CC[C@@H](O)[C@H](OC)C2)CC(=O)[C@H](C)/C=C(\C)[C@@H](O)[C@@H](OC)C(=O)[C@H](C)C[C@H](C)/C=C/C=C/C=C/1C [Rapamycin, reference compound]
Human iPSCs
  percentage of events in G1 phase, mean: 58.3%
  percentage of events in G2 phase, mean: 30.5%
  percentage of events in S phase, mean: 11.2%
Cynomolgus monkey iPSCs
  percentage of events in G1 phase, mean: 41.7%
  percentage of events in G2 phase, mean: 45.6%
  percentage of events in S phase, mean: 12.7%

From US12350273B2, “Treatment of SMA” (Hoffmann-La Roche Inc., priority 2017, dated 2025)
